According to US11255843B2, “Compositions and methods for identifying metabolically active agents” (Northwestern University, priority 2016, dated 2022):
Counter-ions that a name gives are not always drawn.

Experiments:
myotubes and MEFs = test: Core clock gene expression after chemical hypoxia mimetic (qPCR); format: cell-based, mouse; settings: hypoxia induced with chemical mimetic CoCl2
Method: Total RNA was extracted from C2C12 and MEF cell pellets and snap-frozen mouse skeletal muscle tissue using Tri-Reagent (Molecular Research Center, Inc). For muscle tissue samples, tissue was homogenized using a TissueLyser II apparatus (Qiagen). cDNA was synthesized using the High Capacity cDNA Reverse Transcription kit (Applied Biosystems). Real-time PCR was performed and analyzed using a CFX384 (Biorad). PCR conditions were: 10 min at 95° C., then 35 cycles of 10 s at 95° C., 15 s at 60° C. Relative expression levels (normalized to 18S rRNA (C2C12 and MEF) or β-actin (skeletal muscle)) were determined using the comparative CT method.

[1] = tested on: PdxCreER;Bmal1flx/flx islets; test: Static insulin secretion assay in islets isolated from tamoxifen-treated PdxCreER;Bmal1flx/flx mice (ELISA); format: cell-based, mouse; settings: islets from tamoxifen-treated mutant vs control mice, stimulated 1 hour; 1 mM carbachol, 10 μM PMA, 10 μM ionomycin, 2.5 μM forskolin, 1 mM 8-Br-cAMP
Method: Mouse pancreatic islets were isolated via bile duct collagenase digestion (Collagenase P, Sigma) and Ficoll gradient separation and left to recover overnight (16 hours) at 37° C. in RPMI 1640 with 10% fetal bovine serum (FBS), 1% 1-glutamine, and 1% penicillin/streptomycin. For standard insulin release assays, five islets were statically incubated in Krebs-Ringer buffer (KRB) and stimulated for 1 hour at 37° C. with various glucose concentrations, 30 mM KCl, 2.5 μM forskolin, 1 mM 8-Br-cAMP, 10 mM 1-leucine+2 mM 1-glutamine, 1 mM carbachol, 10 μM PMA, or 10 μM ionomycin. Supernatant was collected and assayed for insulin content by enzyme-linked immunosorbent assay (ELISA; Crystal Chem Inc.). Islets were then sonicated in acid-ethanol solution and solubilized overnight at 4° C. before assaying total insulin content by ELISA. For rhythmic insulin release assays, islets were first synchronized with 10 μM forskolin (Sigma) for 1 hour and allowed to recover for 16 hours. Insulin secretion assays were then performed as above in individual groups of five islets every 4 hours for 72 hours (FIG. 5A). Human islets (obtained from IIDP) were cultured in RPMI 1640 with 10% human AB serum, 1% 1-glutamine, and 1% penicillin/streptomycin (see table in FIG. S4A for details of sex, age, BMI, and IIDP ID numbers of the three donors). For the rhythmic analysis of RNAs in murine and human islets, RNA was isolated (described below) in groups of 200 islets every 4 hours for 48 or 24 hours, respectively, starting 40 hours after forskolin synchronization (FIG. 5A).
For in vivo delivery of tamoxifen (Sigma, dissolved in corn oil), mice received three intraperitoneal (i.p.) injections of 200 μg tamoxifen/g body weight, administered every other day. Subsequent experiments were conducted 10 to 14 days after tamoxifen treatment. For in vitro administration of tamoxifen, isolated islets were incubated for 24 hours with […] tamoxifen (dissolved in ethanol) prior to transfer to complete media for 24 hours to recover. Islets were then synchronized with forskolin prior to insulin secretion assays as described above.

Bmal1−/− Beta TC-6 cells = test: High throughput insulin-NanoLuc screen for drugs that restore glucose-stimulated insulin secretion; format: cell-based, mouse; settings: 10 uM compound + 20 mM glucose, 1 hr
Method: A high throughput screen was used to identify small molecule drugs capable of restoring glucose-stimulated insulin secretion in clock-deficient beta cells. Bmal1^−/− beta cells and primary islets display reduced glucose-stimulated insulin secretion (GSIS) and that agonists of Gq-coupled muscarinic receptor and diacyl glycerol (DAG) signaling rescue secretion to that of wild type cells. Compounds to augment GSIS in Bmal1^−/− cells were identified by adding compounds in combination with 20 mM glucose and using the DAG mimetic Phorbol 12-myristate 13-acetate (PMA), which rescues GSIS in these cells, as a positive control. The spectrum collection small molecule compound library (MicroSource Discovery Systems, Inc) consisting of 2700 known drugs and drug-like molecules was screened for compounds that augment insulin secretion in Bmal1^−/− Beta TC-6 cells. Insulin Nanoluc expressing Bmal1^−/− Beta TC-6 cells (30,000 cells/well) were plated in 384 well plates and cultured for 4 days at 37° C. with 5% CO2. Prior to the assay, cells were washed once with KRB buffer containing 0 mM glucose and starved in glucose-free KRB buffer for 1 hour. After aspirating, KRB buffer containing 20 mM glucose in addition to small molecules (10 uM) were added, and the cells were incubated for 1 hour. As a negative control, 16 wells received only 20 mM glucose, which fails to elicit insulin secretion in Bmal1^−/− cells, and an additional 16 wells received KRB buffer containing 20 mM glucose and 10 μM PMA, which is known to induce insulin secretion in Bmal1^−/− mouse islets and Beta TC-6 cells. After 1 hour, the supernatant was collected and centrifuged at 500G for 30 min. The supernatant was transferred into a fresh 384-well assay plate containing Nano-Glo Luciferase Assay Substrate (Promega) and luciferase intensity was measured by EnSpire Plate Reader (PerkinElmer) Intensity was measured within 30 minutes.
Z scores for luciferase intensities produced by screened compounds were calculated from the following formula: z=(X−μ)/σ where z is the z-score, X is intensity of compounds, μ is the intensity of negative control (20 mM glucose), and σ is the standard deviation of negative control. Hit compounds were defined as those that elicited a response of more than 3 standard deviations from the mean (Z score>3). Hit Compounds
The Spectrum Collection small molecule compound library (MicroSource Discovery Systems, Inc), which consists of 2700 known drugs and drug-like molecules, was screened for compounds that augment insulin secretion in Bmal1^−/− Beta TC-6 cells. Insulin Nanoluc-expressing Bmal1^−/− Beta TC-6 cells (30,000 cells/well) were placed into 384 well plates and cultured for 4 days at 37° C. and 5% CO2. The cells were washed once and starved in KRB buffer containing 0 mM glucose for 1 hr. After removing the KRB, KRB buffer containing 20 mM glucose in addition to the small molecules (10 uM) were added, and the cells were incubated for 1 hr. As a negative control, 16 wells received KRB buffer with only 20 mM glucose, which fails to elicit insulin secretion in Bmal1^−/− cells, and as a positive control, 16 wells received KRB buffer containing 20 mM glucose and 10 μM PMA, which is known to induce insulin secretion in both Bmal1^−/− mouse islets and Beta TC-6 cells. After 1 hr, the supernatant was collected and centrifuged at 500 g for 30 min. The supernatant was transferred into a fresh 384-well assay plate containing Nano-Glo Luciferase Assay Substrate (Promega), and luciferase intensity was measured by EnSpire Plate Reader (PerkinElmer) within 30 minutes.
Z scores for luciferase intensities produced by screened compounds were calculated from the following formula: z=(X−μ)/σ (where z is the Z score, X is the intensity of the compounds, μ is the intensity of negative control (20 mM glucose), and a is the standard deviation of negative control). A row-based correction factor was applied to all luciferase readings to adjust for logarithmic signal decay. […]

wild-type βTC-6 cells [2] = test: Calcium flux (Fura-2) after exposure to glucose and compound; format: cell-based, mouse; settings: ivermectin 10 μM with glucose
Method: BetaTC-6 cells were plated at a density of 100,000 cells per well in black 96-well plates with clear bottoms and cultured overnight at 37° C. and 5% CO2. Cells were then washed with BSA-free KRB buffer with no glucose and loaded with 5 μM Fura-2 (Invitrogen) and 0.04% Pluronic F-127 (Invitrogen) for 30 min at 37° C. Following a wash with BSA-free KRB, Fura-2 intensity was measured following injection of either glucose alone or indicated compounds. Cells were alternately excited with 340 nm and 380 nm wavelength light, and the emitted light was detected at 510 nm using a Cytation 3 Cell Imaging Multi-Mode Reader (Bio Tek) at sequential 30-second intervals. Raw fluorescence data were exported to Microsoft Excel and expressed as the 340/380 ratio for each well.

wild-type βTC-6 cells [3] = test: Glucose-stimulated insulin secretion assay in Beta TC-6 cells (ELISA); format: cell-based, mouse; settings: for effect on glucose-stimulated insulin secretion and calcium flux (validation of hits): hit compounds at 10 and 100 μM, 0 or 20 mM glucose
Method: Beta TC-6 cells (300,000 cells/well) were seeded into poly-L-lysine-coated 24 well plates and cultured for 48-72 hrs at 37° C. and 5% CO2. The cells were washed once and incubated in KRB buffer containing 0 mM glucose for 1 hr. Cells were then treated for 1 hr with KRB buffer containing 0 or 20 mM glucose in the presence of hit compounds (including ivermectin, alexidine, and tomatine at final concentrations of 10 and 100 μM) or an equivalent volume of DMSO as a vehicle control. Supernatants were then collected and centrifuged at 500G for 30 min and assayed for insulin content by ELISA (Crystal Chem Inc). Cell lysates were harvested in acid-ethanol solution (0.18M HCl in 70% Ethanol), sonicated, and solubilized overnight at 4° C. before assaying total insulin content by ELISA. For insulin secretion assays following prolonged ivermectin treatment, cells were first treated with 10 μm ivermectin for 24 hrs prior to the 1 hr incubation with 0 mM glucose KRB buffer.

C2C12 myotubes = settings: 62.5 uM DMOG; DMSO-treated controls 22 hrs, p<0.05
Method: For PERIOD2:LUCIFERASE (PER2:LUC) reporter assays, C2C12 myoblast cells were first infected with PER2:LUC-expressing lentivirus (gift of A. Liu, University of Memphis) (18454201) and maintained in DMEM that included 10% FBS and 2.5 μg/ml blastocidin to select for stable Per2-luc integration. Myoblasts were then differentiated for 5 days with 2% horse serum, and then synchronized in 50% horse serum for 2 hours.

Beta-TC6 cells = test: Intracellular calcium determination with Fura2-AM dye; format: cell-based, mouse; settings: Fura2-AM ratiometric, 10 μM ionomycin
Method: BetaTC-6 cells were plated at a density of 100,000 cells per well in black 96-well plates with clear bottoms and cultured overnight at 37° C. and 5% CO2. Islets were dispersed to single cells by incubating in 0.05% Trypsin-EDTA at 37° C. for 3 min and plated at a density of 100 islets per well in laminin-treated black 96-well plates with clear bottoms and cultured in complete media for 48 hours at 37° C. and 5% CO2. Cells were then washed with BSA-free KRB buffer with no glucose and loaded with 5 μM Fura-2 (Invitrogen) and 0.04% Pluronic F-127 (Invitrogen) for 30 min at 37° C. Following a wash with BSA-free KRB, Fura-2 intensity was measured after injection of either glucose or ionomycin (Sigma) to final concentrations of 20 mM or 10 μM, respectively. Cells were alternately excited with 340- and 380-nm light, and the emitted light was detected at 510 nm using a Cytation 3 Cell Imaging Multi-Mode Reader (Bio Tek) at sequential 30-s intervals. Raw fluorescence data were exported to Microsoft Excel and expressed as the 340/380 ratio for each well.

| Molecule | insulin secretion in PdxCreER;Bmal1flx/flx islets in response to secretagogue [1] | glucose-dependent insulin secretion in the absence of BMAL1 (hit compound) (Bmal1−/− Beta TC-6 cells) | effect on glucose-stimulated insulin secretion and calcium flux (validation of hits) (wild-type βTC-6 cells [3]) | also measured |
| --- | --- | --- | --- | --- |
| [Cl][Co][Cl] [CoCl2, cobalt chloride] |  |  |  | expression of core clock genes (myotubes and MEFs): increased expression of core clock genes |
| Nc1ncnc2c1nc(Br)n2[C@@H]1O[C@@H]2COP(=O)(O)O[C@H]2[C@H]1O [8-br-cAMP] | secreted significantly less insulin than controls |  |  |  |
| CCCCCCCCCCCCCC(=O)O[C@@H]1[C@@H](C)[C@@]2(O)[C@@H](C=C(CO)C[C@]3(O)C(=O)C(C)=C[C@@H]23)[C@@H]2C(C)(C)[C@]12OC(C)=O [PMA, phorbol 12-myristate 13-acetate] | restored insulin secretion | rescues GSIS |  |  |
| ivermectin |  | stimulate glucose-dependent insulin secretion | impact both glucose-stimulated insulin secretion and calcium flux | calcium flux in wild-type βTC-6 cells (wild-type βTC-6 cells [2]): enhances glucose-stimulated insulin secretion and calcium flux; glucose-stimulated insulin secretion in wild-type βTC-6 cells (wild-type βTC-6 cells [3]; acute or prolonged exposure, presence or absence of glucose): enhances glucose-stimulated insulin secretion |
| C[N+](C)(C)CCOC(N)=O [carbachol] | restored insulin secretion | stimulate glucose-dependent insulin secretion |  |  |
| C[C@H]1CC[C@]2(NC1)O[C@H]1C[C@H]3[C@@H]4CC[C@H]5C[C@@H](O[C@@H]6O[C@H](CO)[C@H](O[C@@H]7O[C@H](CO)[C@@H](O)[C@H](O[C@@H]8OC[C@@H](O)[C@H](O)[C@H]8O)[C@H]7O[C@@H]7O[C@H](CO)[C@@H](O)[C@H](O)[C@H]7O)[C@H](O)[C@H]6O)CC[C@]5(C)[C@H]4CC[C@]3(C)[C@H]1[C@@H]2C [tomatine] |  | stimulate glucose-dependent insulin secretion | impact both glucose-stimulated insulin secretion and calcium flux |  |
| COC(=O)CNC(=O)C(=O)OC [DMOG, dimethyloxalyl glycine] |  |  |  | period of PER2:LUC oscillations (C2C12 myotubes): 23 h |
| CCCCC(CC)CNC(=N)NC(=N)NCCCCCCNC(=N)NC(=N)NCC(CC)CCCC (stereo not drawn) [alexidine hydrochlodire] |  | stimulate glucose-dependent insulin secretion | impact both glucose-stimulated insulin secretion and calcium flux |  |
| CNC1(C)C2CCC(C2)C1(C)C (stereo not drawn) [mecamylamine hydrochloride] |  | stimulate glucose-dependent insulin secretion |  |  |
| C[C@H](CCC(=O)O)C[C@H](C)C[C@H](C)C(=O)/C=C(\O)[C@H](C)C[C@H](C)C/C=C/[C@@H](C)[C@@H](O)[C@@H](C)[C@@H](O)C[C@@H]1CC[C@@](C)([C@H]2CC[C@@](C)([C@@H](C)O)O2)O1 [ionomycin] | significantly reduced in mutants |  |  | intracellular Ca2+ (Beta-TC6 cells): raised intracellular Ca2+ |
